Test results taken from ChEMBL document CHEMBL1201862, “PubChem BioAssay data set” (2004).
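Values below derive from 48-hour exposures of cells grown in 96-well plates, with endpoints linearly interpolated between the two concentrations bracketing the appropriate inhibition level. GI50: concentration for 50% inhibition of growth.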 The source made the active and inactive calls. Rule as the data show it: active = GI50 up to about 1.1 µM and inactive = higher.

Columns and labels:
Assay in all cases: DTP human tumour cell line panel, 48 h
MOLT-4 = system: MOLT-4
NCI-H226 = system: NCI-H226
MDA-N = system: MDA-N
U-251 = system: U-251
NCI-H522 = system: NCI-H522
SR = system: SR
786-0 = system: 786-0
SW-620 = system: SW-620
Malme-3M = system: Malme-3M
MCF7 = system: MCF7
SK-MEL-5 = system: SK-MEL-5
KM12 = system: KM12
HCC 2998 = system: HCC 2998
K562 = system: K562
MDA-MB-231 = system: MDA-MB-231
HT-29 = system: HT-29
OVCAR-8 = system: OVCAR-8
SF-295 = system: SF-295
SNB-75 = system: SNB-75
RXF 393 = system: RXF 393

SMILES: Cc1ccc2c(=O)c3cccc(CC(=O)O)c3[nH]c2c1C
- GI50 (MOLT-4): > 100 µM (inactive)
- GI50 (NCI-H226): > 100 µM (inactive)
- GI50 (MDA-N): > 100 µM (inactive)
- GI50 (U-251): 27.9 µM (inactive)
- GI50 (NCI-H522): > 100 µM (inactive)
- GI50 (SR): > 100 µM (inactive)
- GI50 (786-0): > 100 µM (inactive)
- GI50 (SW-620): > 100 µM (inactive)
- GI50 (Malme-3M): > 100 µM (inactive)
- GI50 (MCF7): 71.6 µM (inactive)
- GI50 (SK-MEL-5): 33.3 µM (inactive)
- GI50 (KM12): > 100 µM (inactive)
- GI50 (HCC 2998): > 10 µM (inactive)
- GI50 (K562): > 100 µM (inactive)
- GI50 (MDA-MB-231): > 100 µM (inactive)
- GI50 (HT-29): > 100 µM (inactive)
- GI50 (OVCAR-8): > 100 µM (inactive)
- GI50 (SF-295): > 100 µM (inactive)

SMILES: CCOC(=O)COc1c(OC)cc(C2C3=C(COC3=O)Oc3cc4c(cc32)OCO4)cc1OC (stereo not given)
- GI50 (MOLT-4): 0.417 µM (active)
- GI50 (NCI-H226): > 54 µM (inactive)
- GI50 (MDA-N): 0.384 µM (active)
- GI50 (U-251): 0.499 µM (active)
- GI50 (NCI-H522): 0.479 µM (active)
- GI50 (SR): 0.995 µM (active)
- GI50 (786-0): 2.77 µM (inactive)
- GI50 (SW-620): 0.476 µM (active)
- GI50 (Malme-3M): 57.8 µM (inactive)
- GI50 (MCF7): 3.27 µM (inactive)
- GI50 (SK-MEL-5): 0.244 µM (active)
- GI50 (SNB-75): 4.62 µM (inactive)
- GI50 (KM12): 0.304 µM (active)
- GI50 (HCC 2998): 14.5 µM (inactive)
- GI50 (K562): 0.155 µM (active)
- GI50 (MDA-MB-231): 3.03 µM (inactive)
- GI50 (HT-29): 0.927 µM (active)
- GI50 (OVCAR-8): 5.69 µM (inactive)
- GI50 (SF-295): 0.9 µM (active)

SMILES: CCOC(=O)c1c(SCCCN2CCCCC2)n(-c2ccccc2)c(=S)n(-c2ccccc2)c1=O
- GI50 (MOLT-4): 7.26 µM (inactive)
- GI50 (NCI-H226): 15.6 µM (inactive)
- GI50 (MDA-N): 15 µM (inactive)
- GI50 (RXF 393): 18.3 µM (inactive)
- GI50 (U-251): 16.9 µM (inactive)
- GI50 (NCI-H522): 19.3 µM (inactive)
- GI50 (SR): 22 µM (inactive)
- GI50 (786-0): 3.87 µM (inactive)
- GI50 (SW-620): 17.7 µM (inactive)
- GI50 (Malme-3M): 16.3 µM (inactive)
- GI50 (MCF7): 12.1 µM (inactive)
- GI50 (SK-MEL-5): 16.4 µM (inactive)
- GI50 (KM12): 19.2 µM (inactive)
- GI50 (HCC 2998): 17.3 µM (inactive)
- GI50 (K562): 5.48 µM (inactive)
- GI50 (MDA-MB-231): 19.4 µM (inactive)
- GI50 (HT-29): 20.3 µM (inactive)
- GI50 (OVCAR-8): 19.3 µM (inactive)

SMILES: Cc1ccc(CS(=O)(=O)C/N=C2\Sc3ccccc3N\C2=C/C(=O)c2ccc(Cl)cc2)cc1
- GI50 (MOLT-4): 6.08 µM (inactive)
- GI50 (MDA-N): > 10 µM (inactive)
- GI50 (U-251): > 10 µM (inactive)
- GI50 (NCI-H522): > 10 µM (inactive)
- GI50 (SR): > 10 µM (inactive)
- GI50 (786-0): > 10 µM (inactive)
- GI50 (SW-620): > 10 µM (inactive)
- GI50 (Malme-3M): > 10 µM (inactive)
- GI50 (MCF7): 0.703 µM (active)
- GI50 (SK-MEL-5): > 10 µM (inactive)
- GI50 (SNB-75): 3.86 µM (inactive)
- GI50 (KM12): > 10 µM (inactive)
- GI50 (HCC 2998): > 10 µM (inactive)
- GI50 (K562): > 10 µM (inactive)
- GI50 (MDA-MB-231): > 10 µM (inactive)
- GI50 (HT-29): > 10 µM (inactive)
- GI50 (OVCAR-8): > 10 µM (inactive)
- GI50 (SF-295): > 10 µM (inactive)

SMILES: CC(NC(=O)C(C)C(=O)Nc1ccc(C(F)(F)F)cc1)C(N)=O (stereo not given)
- GI50 (MOLT-4): > 10 µM (inactive)
- GI50 (NCI-H226): > 100 µM (inactive)
- GI50 (MDA-N): > 100 µM (inactive)
- GI50 (RXF 393): > 100 µM (inactive)
- GI50 (U-251): > 100 µM (inactive)
- GI50 (NCI-H522): > 100 µM (inactive)
- GI50 (SR): > 10 µM (inactive)
- GI50 (786-0): > 100 µM (inactive)
- GI50 (SW-620): > 100 µM (inactive)
- GI50 (Malme-3M): > 100 µM (inactive)
- GI50 (MCF7): > 100 µM (inactive)
- GI50 (SK-MEL-5): > 100 µM (inactive)
- GI50 (SNB-75): > 100 µM (inactive)
- GI50 (KM12): > 100 µM (inactive)
- GI50 (K562): > 100 µM (inactive)
- GI50 (MDA-MB-231): > 100 µM (inactive)
- GI50 (HT-29): > 100 µM (inactive)
- GI50 (OVCAR-8): > 100 µM (inactive)
- GI50 (SF-295): > 100 µM (inactive)

SMILES: COc1ccc(/C=c2\s/c(=C3/SC(=S)N(c4ccccc4)C3=O)n(-c3ccccc3)c2=O)cc1
- GI50 (MOLT-4): 29.8 µM (inactive)
- GI50 (MDA-N): > 100 µM (inactive)
- GI50 (U-251): 19.6 µM (inactive)
- GI50 (NCI-H522): > 100 µM (inactive)
- GI50 (SR): 15.3 µM (inactive)
- GI50 (786-0): 43.6 µM (inactive)
- GI50 (SW-620): > 100 µM (inactive)
- GI50 (Malme-3M): > 100 µM (inactive)
- GI50 (MCF7): 0.264 µM (active)
- GI50 (SK-MEL-5): > 100 µM (inactive)
- GI50 (SNB-75): 4.61 µM (inactive)
- GI50 (KM12): > 100 µM (inactive)
- GI50 (HCC 2998): > 100 µM (inactive)
- GI50 (K562): > 100 µM (inactive)
- GI50 (MDA-MB-231): 49.3 µM (inactive)
- GI50 (HT-29): > 100 µM (inactive)
- GI50 (OVCAR-8): > 100 µM (inactive)
- GI50 (SF-295): 35 µM (inactive)
